Consider 3 compounds from article PMC3605653 (The Journal of Biological Chemistry, 2013).

Experiment [1] deals with T1, ELIC (Erwinia chrysanthemi ligand-gated ion channel) (Dickeya chrysanthemi, UniProt P0C7B7).
T1 sequence (P0C7B7 1-321): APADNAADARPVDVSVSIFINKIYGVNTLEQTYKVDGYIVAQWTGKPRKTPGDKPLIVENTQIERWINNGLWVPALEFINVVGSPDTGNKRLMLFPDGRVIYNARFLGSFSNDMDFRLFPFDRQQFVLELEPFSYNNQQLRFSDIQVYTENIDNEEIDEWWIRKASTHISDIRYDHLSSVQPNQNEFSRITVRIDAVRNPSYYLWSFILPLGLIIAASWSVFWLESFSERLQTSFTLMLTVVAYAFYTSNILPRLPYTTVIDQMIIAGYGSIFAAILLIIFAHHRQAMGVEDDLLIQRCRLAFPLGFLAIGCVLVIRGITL
In words: two-electrode voltage clamp, Xenopus oocytes. The following applies: agonist; pH 7.4, 18 °C, -60 mV; concentration used as EC20. It counts as cell-based.

For experiment [2], the target named is T1, ELIC (Erwinia chrysanthemi ligand-gated ion channel). As to the kind of experiment: two-electrode voltage clamp, Xenopus oocytes. Format: cell-based.
Experiment [3] deals with ELIC (Erwinia chrysanthemi ligand-gated ion channel) (Dickeya chrysanthemi, UniProt P0C7B7, F273A/L239S). In words: cell-based. The following applies: read-out: remaining EC20 current (%) at 200 μM.
The target in experiment [4] is ELIC (Erwinia chrysanthemi ligand-gated ion channel) (Dickeya chrysanthemi, UniProt P0C7B7, L239S/W223A). In words: cell-based. The settings on record: read-out: remaining EC20 current (%) at 200 μM.

Turning to `NCCCC(=O)O` [GABA], in experiment [1], the 20% effect concentration (EC20) was found to be 3000 µM.
As for `BrC(Br)Br` [bromoform], in experiment [2], the midpoint of inhibition, the IC50, lay at 125 ± 10 µM. Besides, the remaining activity at 200 µM in experiment [3] worked out at 78 ± 4%; in experiment [4], 81 ± 6%.
The compound `ClC(Cl)Cl` [chloroform] came in with an IC50 in experiment [2] of 162 ± 26 µM.
